According to BindingDB's records for doi:10.1021/acs.jmedchem.1c00124 (Hemoshear Therapeutics, 2021):

Columns and labels:
[1] = Direct inhibition of CYP2D6 in human liver microsomes using bufuralol as substrate
[2] = Direct inhibition of CYP1A2 in human liver microsomes using Phenacetin as substrate
[3] = Direct inhibition of CYP2C9 in human liver microsomes using diclofenac as substrate
[4] = Direct inhibition of CYP2C8 in human liver microsomes using amodiaquine as substrate
[5] = Direct inhibition of CYP2C19 in human liver microsomes using S-mephenytoin as substrate
[6] = Time-dependent inhibition of CYP2D6 in human liver microsomes using bufuralol as substrate preincubated for 30 mins
[7] = Time-dependent inhibition of CYP1A2 in human liver microsomes using Phenacetin as substrate preincubated for 30 mins
[8] = Time-dependent inhibition of CYP2C9 in human liver microsomes using diclofenac as substrate preincubated for 30 mins
[9] = Time-dependent inhibition of CYP2C8 in human liver microsomes using amodiaquine as substrate preincubated for 30 mins
[10] = Time-dependent inhibition of CYP2C19 in human liver microsomes using S-mephenytoin as substrate preincubated for 30 mins

Measured: IC50

CCC(C)(C)C(=O)O [2,2-DIMETHYLBUTYRATE]
> 10 mM: [1] | [2] | [3] | [4] | [5] | [6] | [7] | [8] | [9] | [10]
